≈ marks a conversion by molar mass, not a printed value. Entries after “also recorded” stand apart in the source; their conditions may differ.
Columns and labels:
B16F10 melanoma [1] = assay: In vivo covalent binding of (14C)-NACAP to tissues of melanoma-bearing mice; details: female C57BL/6J mice, single i.p. injection, 48 hr, mean + S.D. (n = 3)
Procedure: In vivo covalent binding of (^14 C)-N-acetyl-4-S-CAP was investigated in mice. Female C57BL/6J mice received a single intraperitoneal injection of 2.0 mmol/kg (^14 C)-N-acetyl-4-S-CAP compound. The animals were killed 48 hours later. The tissues were removed and the covalent binding was determined as follows.
Five different tissues were examined for covalent binding of radioactively labelled N-acetyl-4-S-CAP intermediate(s). The maximum binding of N-acetyl-4-S-CAP was detected in the s.c. melanoma tumor and melanoma colony-bearing lung tissues. […]
^a Female C57BL/6J mice received a single intraperitoneal injection o
2.0 nmol/kg (^14 C)NACAP. The animals were killed 48 hr later, the
tissues were removed, and the covalent binding was determined as describe
^b The data are presented as the means + S.D. (n = 3).

B16F10 melanoma [2] = assay: In vivo biodistribution by whole-body autoradiography; set-up: species or system mouse
Procedure: 48 hours after injection the animal was killed, frozen and prepared for sectioning. The 20-μm sections were freeze-dried and exposed to x-ray film for whole-body autoradiography.
The s.c. melanoma tumor and the lung with melanoma colonies were the only organs displaying a significant accumulation of the radioactivity.

melanoma tissue = assay: Distribution of 4-S-CAP in radioimaging or radiochemotherapy; details: in vivo
Excerpt: When the compounds of the formula (I) are used in radiochemotherapy they may be combined with suitable pharmaceutical excipients and carriers wherein the radioactive selected compounds are present in a biologically effective amount in the carriers. Suitable biologically, compatible carriers may be solutions when injected by either the IP or SC route. Suitable biologically, compatible carriers for injection include physiologically normal saline and other types of readily injectable solutions which are well understood by those skilled in the art and readily available. […] For purposes of injection, the concentration of the radiolabelled compound in the injectable solution is normally in the range of 200 to 1200 mg per kg of body weight where the preferred dosage is in the range of 300 mg to 500 mg per kg of body weight. In the following examples, further information is provided as to the amount of compounds injected for purposes of radioimaging.

melanoma = details: mice in vivo; cited from earlier work
epidermal melanocytes = details: topical application, cited from earlier work
follicular melanocytes = details: cited from earlier work
monoamineoxidase (MAO) = details: cited from earlier work; for General (non-specific) cytotoxicity: via aldehyde metabolite formed by plasma MAO
[3] = Determination of NAP-TEA and N-Acetyl-4-S-CAP in plasma after i.p. injection; format: in vivo, C57BL/6J Black Mouse; details: NAP-TEA 300 mg/kg i.p., plasma at 5 and 20 minutes
Procedure: A C57BL/6J Black Mouse was injected at 300 mg/kg body weight by i.p. administration of NAP-TEA. 100 μl of plasma was extracted from the mouse after 5 minutes of injection and after 20 minutes of injection. The plasma samples were treated in accordance with the procedure of Example 2. The plasma samples were passed through a Sep-Pak C18 cartridge in either 5% methanol:water to produce eluent 1 or 50% methanol/water to produce eluent 2. Eluent 2 had the aqueous methanol removed therefrom to provide a residue. The residue was redissolved in methanol/0.1% acetic acid and water in a ratio of 50:50 and subjected to HPLC for both the 5 minute and 20 minute plasma samples. […] The concentration of N-Acetyl-4-S-CAP in the 5 minute extracted sample being considerably greater than in the 20 minute extracted sample to indicate that in vivo NAP-TEA is deacylated to N-Acetyl-4-S-CAP which in turn is then taken up by the mouse melanocytes.

HeLa = assay: In vitro cytotoxicity, MTT assay, HeLa; format: cell-based; details: Homo sapiens, 120 h, 5 days
Procedure: (§1) MTT assay in accordance with the standard procedure
(§2) MTT solution (Sigma catalog No. M2128) was dissolved in PBS at 1 mg/ml and filtered to sterilize the solution. The solution was stored in the dark at 4° C. until used. The growing cells were harvested, counted and inoculated into 96 well microtiter plates (1-2×10^3 cells/well).After 24 h, drugs were applied to culture wells, and the cultures were incubated for 5 days at 37° C. At this time, 50 μl of MTT solution was added to microculture wells. After 4 h incubation at 37° C., supernatant was removed from each well. 150 μl of DMSO was added to solubilized the MTT-formazan product. After mixing gently, absorbance at 540 nm was measured with ELISA plate spectrophotometer.

SK-MEL-23 = assay: In vitro cytotoxicity, MTT assay, SK-MEL-23; format: cell-based; details: 120 h; SK-MEL-23, MTT, 5 days
Procedure: as §1, §2

UT amelanotic melanoma = assay: In vitro cytotoxicity, MTT assay, UT amelanotic melanoma; format: cell-based; details: 120 h, 5 days
Procedure: as §1, §2

mushroom tyrosinase = assay: Utilization with mushroom tyrosinase (remaining compound by HPLC); format: biochemical; details: 11 units tyrosinase, pH 6.8, 37° C.
Procedure: A reaction mixture consisting of NAP-TEA (500 μmol) and of mushroom tyrosinase (11 units) in 1.0 ml of 0.05 M sodium phosphate buffer (pH 6.8) was incubated at 37° C. in a water bath. The reaction was stopped periodically by cooling with ice. Aliquots removed at set time intervals were rapidly cooled to 0° C. in an ice bath and the remaining NAP-TEA was measured using HPLC. HPLC instrument and conditions Water 600 E liquid chromatograph system Conditions: μBondapak C18, Radial-Pak Cartridge (Waters) Mobile phase; 70% MeOH/H2 O, 1 ml/min Detector; Waters Model 441 UV absorbance detector Detection; Wavelength 254 nm

tyrosinase = details: cited from earlier work
[4] = O-deacylation of NAP-TEA in mouse plasma in vitro; format: in vitro ADME; details: 10 μg in 100 μl mouse plasma, shaken one-half minute, HPLC
Procedure: NAP-TEA was introduced to mouse plasma to determine by in vitro experimentation the extent to which NAP-TEA is deacetylated to form N-Acetyl-4-S-CAP. The procedure was as follows. Into 100 μl of mouse plasma, 10 μg of NAP-TEA was introduced. The mixture was shook for one-half of a minute and then passed through a Sep-Pak C18 cartridge in either 7 ml of 5% methanol/water to form eluent 1 or in 4 ml of 50% methanol/water to form eluent 2. Both eluents 1 and eluents 2 were collected. Aqueous methanol was removed from eluent 2 to provide a residue which was subjected to HPLC under the following conditions. […] The residue was mixed with methanol:water at 50:50 with a flow rate through the radiograph at 1 ml/min. The detector was a Water Associates Model 441 with detection by ultraviolet at 250 nm.

[5] = test system: follicular melanocytes (black hair); assay: Melanocytotoxicity in vivo (depigmentation of black hair); details: 300 mg/kg i.p. daily for 14 days, plucked C57BL/6J black mice
Procedure: Hairs were plucked manually from the back of 6-8 week old C57BL/6J black mice (4 mice). Starting on day 2, daily for 14 days NAP-TEA was injected i.p. The dose was 300 mg/kg body weight.

hair follicles = assay: Depigmenting effect on newborn black mice; format: in vivo, C57BL/6J black mice; details: single i.p. dose 300 mg/kg, 3 day old mice
Procedure: Six newborn (3 day old) C57BL/6J black mice were injected i.p. with a single dose of 0.1 mL of NAP-TEA solution (300 mg/kg body weight).

functioning melanocytes = assay: In vivo melanocytotoxicity in pig, topical application, Dopa-positive melanocyte count; set-up: species or system Yucatan pig; details: topical twice a day for 8 weeks
Procedure: Solutions of 15% NAP-TEA in DMSO(w/v) and of 15% NAP-TEA in 60% EtOH(w/v) were prepared for topical application to a Yucatan pig. NAP-TEA was applied to the back skin of the pig twice a day for 8 weeks. After 8 weeks, punch biopsy was performed from the application area and from normal skin. Specimens obtained were kept in 2N NaBr solution for 3 hours followed by separation of the epidermis from dermis. Specimens of epidermis were incubated for 3 hours in phosphate buffer (pH 7.4) containing L-Dopa. The specimens were fixed in 10% neutral formalin solution and then washed twice in PBS. Finally, the specimens were mounted in glycerol gel. The numbers of Dopa-positive melanocytes in 9 adjacent 1 mm^2 fields from each sample were counted.

[6] = set-up: species or system animals; details: in vivo
Procedure: Experimental tests on animals indicate per single dose toxicity levels in the range of 1,400 mg/kg of body weight for the preferred compound of formula (II), NAP-TEA.

## CC(=O)NCCS[14c]1[14cH][14cH][14c](O)[14cH][14cH]1 [(14C)-NACAP, N-acetyl-4-S-cysteaminyl (U-^14 C) phenol]
B16F10 melanoma [1]
  Convalent Binding, B16F10 melanoma s.c. tumor: 0.521 + 0.076 nmol covalently bound/kg of protein
  Convalent Binding, kidney: 0.008 + 0.001 nmol covalently bound/kg of protein
  Convalent Binding, liver: 0.013 + 0.003 nmol covalently bound/kg of protein
  Convalent Binding, lungs with B16F10 melanoma colonies: 0.330 + 0.113 nmol covalently bound/kg of protein
  Convalent Binding, lungs without B16F10 melanoma colonies: 0.010 + 0.001 nmol covalently bound/kg of protein
B16F10 melanoma [2]; 48 hours after i.p. injection, mouse
  Radioactivity in normal organs by whole-body autoradiography: not detectable in any normal organs except the lumen of the large intestine
B16F10 melanoma [2]; mouse with s.c. B16F10 tumor and B16F10 lung colonies, single i.p. injection 5.0 μCi, 48 hours
  Radioactivity in melanoma-bearing organs by whole-body autoradiography: showed radioactivity in infected organs

## NCCSc1ccc(O)cc1 [Compound 4-S-CAP, 4-S-cysteaminylphenol]
Melanoma tissue
  Tissue accumulation in radioimaging or radiochemotherapy: collects in the eye as well as in the melanoma tissue
melanoma
  Antimelanoma effect (lifespan of melanoma-bearing mice, inhibition of melanoma growth): potent agent in prolonging the lifespan of melanoma-bearing mice
Epidermal melanocytes; guinea pigs
  Inflammatory changes of the skin: prominent
Epidermal melanocytes
  Depigmentation of black guinea pig skin: demonstrated depigmenting properties
Follicular melanocytes; albino follicles
  Effect on albino follicles: no effect on the albino follicles
Follicular melanocytes; black follicles
  Cytotoxicity on black hair follicles: demonstrated cytotoxicity in the depigmentation of black hair follicles
Monoamineoxidase (MAO); plasma
  Substrate for monoamineoxidase (MAO): substrate for monoamineoxidase (MAO)
Monoamineoxidase (MAO)
  General (non-specific) cytotoxicity: high toxicity; also recorded: some general cytotoxicity

## NC(CSc1ccc(O)cc1)C(=O)O (stereo not drawn) [Compound 4-S-CP, 4-S-cysteinylphenol]
melanoma
  Antimelanoma effect (lifespan of melanoma-bearing mice, inhibition of melanoma growth): some inhibition of melanoma growth

## CC(=O)NCCSc1ccc(O)cc1 [N-Acetyl-4-S-CAP, N-acetyl-4-S-cysteaminylphenol]
[3]
  Compound detected in plasma by HPLC after NAP-TEA injection: evidence of N-Acetyl-4-S-CAP
HeLa
  IC50: 75 µg/mL (≈ 355 µM)
SK-MEL-23
  IC50: 25 µg/mL (≈ 118 µM)
UT amelanotic melanoma
  IC50: 12 µg/mL (≈ 56.8 µM)
Mushroom tyrosinase
  Substrate of mushroom tyrosinase (concentration remaining in the reaction mixture): dropped off rapidly over 25 minutes to almost zero amount after 50 minutes
melanoma
  Antimelanoma effect (lifespan of melanoma-bearing mice, inhibition of melanoma growth): potent antimelanoma properties
Monoamineoxidase (MAO)
  General (non-specific) cytotoxicity: absence of such cytotoxicity
tyrosinase
  Substrate of tyrosinase: superior substrate

## CC(=O)NCCSc1ccc(OC(C)=O)cc1 [NAP-TEA, N-{2-((4-Acetoxyphenyl)-thio)ethyl}acetamide]
[4]
  O-deacylation to N-Acetyl-4-S-CAP in mouse plasma: readily deacylated by the mouse plasma
[3]
  Compound detected in plasma by HPLC after NAP-TEA injection: no evidence of NAP-TEA
HeLa
  IC50: 77 µg/mL (≈ 304 µM)
SK-MEL-23
  IC50: 31 µg/mL (≈ 122 µM)
UT amelanotic melanoma
  IC50: 14 µg/mL (≈ 55.3 µM)
Mushroom tyrosinase
  Substrate of mushroom tyrosinase (concentration remaining in the reaction mixture): not a substrate of mushroom tyrosinase
[5]
  Depigmentation of replacement hair: mice were depigmented with the new replacement hair being almost pure white
Hair follicles
  Depigmentation of hair follicles in newborn mice: depigmented in all hair follicles with the growing hair being light grey
Functioning melanocytes; 15% NAP-TEA in 60% EtOH
  Number of functioning melanocytes (Average of 9 fields): 74 ± 25 /mm^2
Functioning melanocytes; 15% NAP-TEA in DMSO
  Number of functioning melanocytes (Average of 9 fields): 32 ± 14 /mm^2
[6]
  per single dose toxicity level: ~1,400 mg/kg of body weight

## COC(=O)C(N)CSc1ccc(O)cc1 (stereo not drawn) [methyl ester of 4-S-CP]
melanoma
  Antimelanoma effect (lifespan of melanoma-bearing mice, inhibition of melanoma growth): some inhibition of melanoma growth

From US5925332A, “Radioimaging and radiochemotherapy phenolic thioether amines and acyl derivatives thereof for use in diagnosing and treating pigmentation disorders” (The Governors of the University of Alberta, priority 1992, dated 1999)
